Assays:
[1] = system: anaerobic granular sludge; assay: Laboratory anaerobic serum bottle reactor treating papermaking wastewater with daily C8-HSL addition; conditions: after three months; for Methanobactium, Methanosaeta and Methanosarcina in the microbial community: sequencing analysis
Procedure: First, 50 mL of anaerobic granular sludge and 200 mL of papermaking wastewater collected from a paper mill were placed in a 250 mL anaerobic serum bottle. The bioreactor used in this example involves a 24-hour operation cycle, which has a reaction stage (23.5 h) and a sludge settling stage (0.5 h).
Next, 50 mL of supernatant is removed from the top of the anaerobic serum bottle, and the same volume of fresh papermaking wastewater with N-octyl […] (C8-HSL) is injected into the bottle through a long syringe at the end of the cycle. The injected wastewater is then domesticated for about a week.
2 μg C8-HSL standards are added to the reactor every day after domestication.
The reactor is treated in a constant temperature magnetic stirring water bath at 38° C.
Water samples are collected at the beginning and end of each cycle from the reactor, and sludge samples are also collected at the end of each cycle from the reactor. After a total of three months of operation, sludge biomass is collected by centrifugation at 5000×g for 10 minutes and then frozen for further sequencing analysis. […]

[2] = system: anaerobic granular sludge; assay: Paper mill anaerobic reactor (1500 m^3) with C8-HSL added to papermaking wastewater at the regulating tank outlet
Procedure: In an anaerobic reactor of a paper mill, the reactor is 8 m high and its working volume is 1500 m^3. The papermaking wastewater with high calcium content enters into a regulating tank. The regulating tank has a volume of 1000 m^3. When it is detected that the proportion of microorganism content in the anaerobic granular sludge in the anaerobic reactor is less than 0.6, C8-HSL standard of AHLs type signal molecule is added to the paper-making wastewater at the outlet of the regulating tank end, the quantity of C8-HSL standard is 50 mg per cubic meter of papermaking wastewater. The time interval of signal molecule input is controlled by time controller. The regulating pool is equipped with liquid level transmitter to detect the liquid level to prevent the reactor feed pump from idling. The wastewater that is modulated in the regulating tank is injected into the anaerobic reactor through the wastewater feed pump and treated according to the conventional anaerobic way. In the treatment process, water samples are collected once a month, and sludge samples are collected once half a year. Sludge biomass is collected by centrifugation at 5000×g for 10 minutes, and then frozen for further sequencing analysis.

[3] = 2 μg C8-HSL added every day, 38° C.
[4] = 20 μg C8-HSL added every day, 38° C.
[5] = 30 μg C8-HSL added every day (150 mg/m^3)
[6] = 30 μg C8-HSL added every day (150 mg/m^3), 38° C.
[7] = 50 mg C8-HSL per cubic meter of papermaking wastewater, paper mill, after five years

Question: What does the source list for CCCCCCCC(=O)N[C@H]1CCOC1=O [C8-HSL, N-octyl hypererine lactone]?
Answer: increase of activity of coenzyme F420 compared with the reactor without exogenous signal molecules ([1]; 2 μg C8-HSL added every day): 33.5%; increase of removal rate of COD compared with the reactor without exogenous signal molecules ([1]; 2 μg C8-HSL added every day): 10.8%; increase of specific methanogenic activity (SMA) compared with the reactor without exogenous signal molecules ([1]; 2 μg C8-HSL added every day): 32.4%; chemical oxygen demand (COD) removal rate [1, 3]: 75%; content of coenzyme F420 [1, 3]: 0.18 μmol/gVSS; specific methanogenic activity (SMA) [1, 3]: 25 mL/(gVSS·h); Methanobactium, Methanosaeta and Methanosarcina in the microbial community ([1]; 2 μg C8-HSL added every day): enhanced; increase of activity of coenzyme F420 compared with the reactor without exogenous signal molecules ([1]; 20 μg C8-HSL added every day): 48.1%; increase of removal rate of COD compared with the reactor without exogenous signal molecules ([1]; 20 μg C8-HSL added every day): 18.2%; increase of specific methanogenic activity (SMA) compared with the reactor without exogenous signal molecules ([1]; 20 μg C8-HSL added every day): 43%; COD removal rate [1, 4]: 80%; content of coenzyme F420 [1, 4]: 0.20 μmol/gVSS; specific methanogenic activity (SMA) [1, 4]: 27 mL/(gVSS·h); Methanobactium, Methanosaeta and Methanosarcina in the microbial community ([1]; 20 μg C8-HSL added every day): enhanced; increase of activity of coenzyme F420 compared with the reactor of adding 100 mg signal molecule per cubic meter of papermaking wastewater [1, 5]: 1.5%; increase of activity of coenzyme F420 compared with the reactor without exogenous signal molecules [1, 5]: 50.38%; increase of removal rate of COD compared with the reactor of adding 100 mg signal molecule per cubic meter of papermaking wastewater [1, 5]: 0.375%; increase of removal rate of COD compared with the reactor without exogenous signal molecules [1, 5]: 18.63%; increase of specific methanogenic activity (SMA) compared with the reactor of adding 100 mg signal molecule per cubic meter of papermaking wastewater [1, 5]: 1.85%; increase of specific methanogenic activity (SMA) compared with the reactor without exogenous signal molecules [1, 5]: 45.66%; COD removal rate [1, 6]: 80.3%; content of coenzyme F420 [1, 6]: 0.203 μmol/gVSS; specific methanogenic activity (SMA) [1, 6]: 27.5 mL/(gVSS·h); Methanobactium, Methanosaeta and Methanosarcina in the microbial community [1, 5]: enhanced; COD removal rate [2, 7]: 75%; content of coenzyme F420 [2, 7]: 0.19 μmol/gVSS; specific methanogenic activity (SMA) [2, 7]: 24 mL/(gVSS·h); calcification of the sludge ([2]; 50 mg C8-HSL per cubic meter of papermaking wastewater, paper mill, after five years, without C8-HSL obvious calcification for up to two years): has not been calcified; Methanobactium, Methanosaeta and Methanosarcina in the microbial community ([2]; 50 mg C8-HSL per cubic meter of papermaking wastewater, paper mill, sequencing analysis): enhanced; effect on delaying calcification ([2]; paper mill reactor, compared with before signal molecule addition): obvious

Reference: patent US20210032139A1, “REGULATING A MICROENVIRONMENT OF ANAEROBIC GRANULAR SLUDGE TO PROMOTE ANAEROBIC DIGESTION AND DELAY CALCIFICATION” (GuangXi University, priority 2019, published 2021)
